Data set [1] concerns the target T1, type-VI B porcine pancreatic α-amylase (Sus scrofa, UniProt P00690).
T1 construct: performed using type-VI B porcine pancreatic α-amylase, with starch as a substrate; from tissue; host or cells: porcine pancreas
T1 sequence (P00690 16-511): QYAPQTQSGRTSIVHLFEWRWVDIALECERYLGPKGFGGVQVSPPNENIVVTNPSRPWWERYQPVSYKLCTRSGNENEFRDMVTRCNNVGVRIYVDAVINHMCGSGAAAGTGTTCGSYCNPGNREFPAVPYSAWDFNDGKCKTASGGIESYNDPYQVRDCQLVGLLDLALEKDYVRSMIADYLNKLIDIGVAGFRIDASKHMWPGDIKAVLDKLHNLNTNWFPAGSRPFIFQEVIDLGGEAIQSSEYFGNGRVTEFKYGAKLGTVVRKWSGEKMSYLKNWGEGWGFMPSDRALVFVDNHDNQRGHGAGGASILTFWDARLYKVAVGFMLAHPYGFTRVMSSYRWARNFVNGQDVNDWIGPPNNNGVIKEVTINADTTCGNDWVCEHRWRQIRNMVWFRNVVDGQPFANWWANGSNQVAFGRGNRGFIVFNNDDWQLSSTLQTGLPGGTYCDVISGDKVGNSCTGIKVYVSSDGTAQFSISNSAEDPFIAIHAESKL
Briefly: α-amylase inhibition assay (starch substrate, DNS reagent). It is filed as biochemical. To be noted: porcine pancreatic enzyme, 25 °C, read-out: IC50 (mean ± SD) α-Amylase (converted). The method, then: (§1) The in vitro enzyme inhibition assays for the two enzymes, i.e., α-glucosidase and α-amylase, were performed according to the previous studies.
The α-amylase inhibition activity was performed using type-VI B porcine pancreatic α-amylase, with starch as a substrate. The enzyme was dissolved in sodium phosphate buffer and the test compound was added at different concentrations. […] The reaction was terminated by adding a DNS reagent and kept in a boiling water bath for 5 min. The resulting mixture was diluted and absorbance was measured at 540 nm using a microplate spectrophotometer.

A further data set deals with yeast α-glucosidase. In words: yeast α-glucosidase inhibition assay (pNPG substrate). It is filed as biochemical. To be noted: yeast enzyme, 37 °C. The protocol:
as §1
The yeast α-glucosidase inhibition assay was performed using pNPG as substrate. An amount of 100 µL of enzyme was then added to the mixture, and the reaction was incubated at 37 °C for 10 min. After adding 0.5 mM pNPG solution, the reaction continued at 37 °C for 20 min. The enzyme activity was determined by measuring the absorbance of the liberated p-nitrophenol at 405 nm using a microplate spectrophotometer. The results were expressed as a percentage of α-glucosidase inhibition, calculated using the formula “Inhibition (%) = (A control − A sample)/A control × 100”. The final results of the enzyme inhibition assay are represented as IC50 values which refers to the concentration required to block 50% of α-glucosidase activity under the test conditions.

Another data set concerns HEK293 cells. In kind it is cell-based. The settings on record: for cytotoxicity against HEK293 cell lines (in words): MTT, 48 h, 250, 500 and 1000 µg/mL, even at the highest concentration (1000 µg/mL). The method, then: The Human Embryonic Kidney (HEK-293) cell lines were cultured in Dulbecco’s Modified Eagle Medium (DMEM) supplemented with 10% fetal bovine serum (FBS). The cells were maintained at 37 °C in a humidified atmosphere of 5% CO2. The adherent cells were grown to 70–80% confluency and then harvested by trypsinization (0.25%). The test compounds were dissolved in DMSO and used for all the experiments. DMSO (0.1%) was used as vehicle control and cells cultured in a complete medium without compound served as control.
Briefly, 5 × 10^3 cells (HEK293 cells) were seeded and allowed to adhere overnight. […] Post 48 h, the cells were exposed to MTT (5 mg/mL in phosphate-buffered saline). The formazan crystals were dissolved in DMSO and the absorption was measured at 570 nm using a microplate reader (Tecan Spark, Switzerland). The percentage viability of the cells was determined.

Consider 13 compounds from PMC11643225, “Novel Benzimidazole-Endowed Chalcones as α-Glucosidase and α-Amylase Inhibitors: An Insight into Structural and Computational Studies” (Molecules, 2024).

Entries after “also recorded” stand apart in the source; their conditions may differ.

On to `COc1ccc(-c2nc3cc(C(=O)/C=C/c4ccccc4Cl)ccc3n2C)cc1OC` [Compound 7a], for which the melting point – broadly, the temperature of the solid-liquid transition – lay within 148 to 150 °C. Also, in data set [1], the IC50 (usually the concentration that gives 50% inhibition) is 92.7 µM. Also, on yeast α-glucosidase, the “IC50 (mean ± SD) α-Glucosidase” value was determined as 30.23 ± 0.14 µg·h/mL.

For the compound `COc1ccc(-c2nc3cc(C(=O)/C=C/c4ccc(C)cc4)ccc3n2C)cc1OC` [Compound 7b], the IC50 in data set [1] was 81 µM. The “IC50 (mean ± SD) α-Glucosidase” value against yeast α-glucosidase stood at 32.10 ± 0.96 i µg/mL. The “cytotoxicity against HEK293 cell lines (in words)” value (from here on “cytotoxicity”) in the data set on HEK293 cells was “negligible cytotoxicity”.

In the case of `COc1ccccc1/C=C/C(=O)c1ccc2c(c1)nc(-c1ccc(OC)c(OC)c1)n2C` [Compound 7c], the melting point was 159 to 161 °C. Besides, the IC50 in data set [1] is 91.9 µM. Also, the “IC50 (mean ± SD) α-Glucosidase” value against yeast α-glucosidase was determined as 25.21 ± 0.13 c µg/mL.

On to `COc1ccc(/C=C/C(=O)c2ccc3c(c2)nc(-c2ccc(OC)c(OC)c2)n3C)cc1` [Compound 7d], for which the melting point lay within 98 to 100 °C. Moreover, the IC50 in data set [1] is 85 µM. Further, the “IC50 (mean ± SD) α-Glucosidase” value on yeast α-glucosidase worked out at 631.7 ± 12.5 µg·h/mL.

As for `COc1ccc(/C=C/C(=O)c2ccc3c(c2)nc(-c2ccc(OC)c(OC)c2)n3C)cc1OC` [Compound 7e], the IC50 in data set [1] was 75.1 µM. For the same compound, the “IC50 (mean ± SD) α-Glucosidase” value against yeast α-glucosidase is 23.88 ± 0.55 b µg/mL. Besides, the “cytotoxicity” value in the data set with HEK293 cells is listed as “negligible cytotoxicity”.

On to `COc1ccc(-c2nc3cc(C(=O)/C=C/c4cc(OC)c(OC)c(OC)c4)ccc3n2C)cc1OC` [Compound 7f], for which the melting point lay within 127 to 129 °C. Also, in data set [1], the IC50 is 76.4 µM. For the same compound, on yeast α-glucosidase, the “IC50 (mean ± SD) α-Glucosidase” value is reported as 28.75 ± 0.12 f µg/mL.

In the case of `COc1cc(-c2nc3cc(C(=O)/C=C/c4ccccc4Cl)ccc3n2C)cc(OC)c1OC` [Compound 7g], the melting point is 183 to 184 °C. Besides, the IC50 in data set [1] was 61.7 µM. On yeast α-glucosidase, the “IC50 (mean ± SD) α-Glucosidase” value came out at 29.28 ± 0.35 g µg/mL.

For `COc1cc(-c2nc3cc(C(=O)/C=C/c4ccc(C)cc4)ccc3n2C)cc(OC)c1OC` [Compound 7h], the melting point lay in the range of 168 to 170 °C. Moreover, in data set [1], the IC50 was 68.9 µM. The “IC50 (mean ± SD) α-Glucosidase” value on yeast α-glucosidase stood at 36.22 ± 0.58 l µg/mL.

In turn, `COc1ccccc1/C=C/C(=O)c1ccc2c(c1)nc(-c1cc(OC)c(OC)c(OC)c1)n2C` [Compound 7i] came in with a melting point of 176 to 178 °C. For the same compound, in data set [1], the IC50 was 52.8 µM. Besides, the “IC50 (mean ± SD) α-Glucosidase” value at yeast α-glucosidase came to 33.20 ± 0.60 J·µg/mL.

For the compound `COc1ccc(/C=C/C(=O)c2ccc3c(c2)nc(-c2cc(OC)c(OC)c(OC)c2)n3C)cc1` [Compound 7j], the melting point lay within 142 to 144 °C. For the same compound, in data set [1], the IC50 is 85.6 µM. On yeast α-glucosidase, the “IC50 (mean ± SD) α-Glucosidase” value is listed as 27.21 ± 0.36 e µg/mL.

The compound `COc1ccc(/C=C/C(=O)c2ccc3c(c2)nc(-c2cc(OC)c(OC)c(OC)c2)n3C)cc1OC` [Compound 7k] gave a melting point of 137 to 139 °C. In addition, in data set [1], the IC50 was 84.4 µM. The “IC50 (mean ± SD) α-Glucosidase” value against yeast α-glucosidase came out at 29.30 ± 0.21 g µg/mL.

Take `COc1cc(/C=C/C(=O)c2ccc3c(c2)nc(-c2cc(OC)c(OC)c(OC)c2)n3C)cc(OC)c1OC` [Compound 7l, (E)-1-(1-methyl-2-(3,4,5-trimethoxyphenyl)-1H-benzo[d]imidazol-5-yl)-3-(3,4,5-trimethoxyphenyl)prop-2-en-1-one]: the IC50 in data set [1] is 39.5 µM. Further, the “IC50 (mean ± SD) α-Glucosidase” value against yeast α-glucosidase amounted to 22.45 ± 0.36 a µg/mL. Further, in the data set with HEK293 cells, the “cytotoxicity” value was “negligible cytotoxicity; also recorded: without exerting toxicity”.

In the case of `CO[C@@]12[C@H](COC(N)=O)C3=C(C(=O)C(C)=C(N)C3=O)N1C[C@@H]1N[C@@H]12` [Mitomycin, reference compound], the cell death entry in the data set on HEK293 cells (HEK293, MTT, 25 µg/mL) is “around 60%”.
